Data: ChEMBL document CHEMBL3779859, “Synergistic activity of a short lipidated antimicrobial peptide (lipoAMP) and colistin or tobramycin against Pseudomonas aeruginosa from cystic fibrosis patients” (Medchemcomm, 2016)
Converted amounts (≈) assume the structure as drawn. The source made the active and inactive calls. The calls are words filed in the database; no cut-off is given here. Peptide text beside a SMILES is read from it. * marks the point of attachment. Decanoyl = CCCCCCCCCC(=O)*

Experiments:
Pseudomonas aeruginosa [1] = assay: Antibacterial activity against Pseudomonas aeruginosa PAO1 clinical isolate after 16 to 20 hrs by microdilution assay; format: functional
Pseudomonas aeruginosa [2] = assay: Antibacterial activity against Pseudomonas aeruginosa LESB58 clinical isolate after 18 to 22 hrs by checkerboard method in presence of tobramycin; format: functional
Pseudomonas aeruginosa [3] = assay: Antibacterial activity against Pseudomonas aeruginosa PAO1 clinical isolate assessed as inhibition of biofilm formation at 32 ug/ml after 18 to 22 hrs by crystal violet staining-based polystyrene microtiter plate reader method in presence of 2 ug/ml tobramycin; format: functional, organism-based
Pseudomonas aeruginosa [4] = assay: Antibacterial activity against Pseudomonas aeruginosa LESB58 clinical isolate assessed as growth inhibition at 4 ug/ml measured every 15 mins by microtiter plate reader method in presence of 2 ug/ml colistin; format: functional, organism-based
Pseudomonas aeruginosa [5] = assay: Antibacterial activity against Pseudomonas aeruginosa LESB58 clinical isolate assessed as delay in growth rate in exponential phase of bacterial growth curve at 4 to 32 ug/ml measured every 15 mins by microtiter plate reader method; format: functional, organism-based
Pseudomonas aeruginosa [6] = assay: Antibacterial activity against Pseudomonas aeruginosa LESB58 clinical isolate after 16 to 20 hrs by microdilution assay; format: functional
Pseudomonas aeruginosa [7] = assay: Antibacterial activity against Pseudomonas aeruginosa PAO1 clinical isolate assessed as inhibition of biofilm formation at 64 ug/ml after 18 to 22 hrs by crystal violet staining-based polystyrene microtiter plate reader method; format: functional
Pseudomonas aeruginosa [8] = assay: Antibacterial activity against Pseudomonas aeruginosa Clone C clinical isolate assessed as delay in growth at 8 to 16 ug/ml measured every 15 mins by microtiter plate reader method; format: functional, organism-based
Pseudomonas aeruginosa [9] = assay: Antibacterial activity against Pseudomonas aeruginosa Clone C clinical isolate after 16 to 20 hrs by microdilution assay; format: functional
Pseudomonas aeruginosa [10] = assay: Antibacterial activity against Pseudomonas aeruginosa PAO1 clinical isolate assessed as delay in growth rate in exponential phase of bacterial growth curve at 4 to 32 ug/ml measured every 15 mins by microtiter plate reader method; format: functional, organism-based
Pseudomonas aeruginosa [11] = assay: Antibacterial activity against Pseudomonas aeruginosa Clone C clinical isolate assessed as inhibition of biofilm formation at 32 ug/ml after 18 to 22 hrs by crystal violet staining-based polystyrene microtiter plate reader method in presence of 2 ug/ml tobramycin; format: functional, organism-based
[12] = Hemolytic activity in erythrocytes (unknown origin) at 32 ug/ml; format: ADME, cell-based, Erythrocyte; settings: read-out: Activity
Pseudomonas aeruginosa [13] = assay: Antibacterial activity against Pseudomonas aeruginosa KD491 clinical isolate after 18 to 22 hrs by checkerboard method in presence of tobramycin; format: functional
Pseudomonas aeruginosa [14] = assay: Antibacterial activity against Pseudomonas aeruginosa PAO1 clinical isolate assessed as inhibition of biofilm formation at 4 ug/ml after 18 to 22 hrs by crystal violet staining-based polystyrene microtiter plate reader method in presence of 0.5 ug/ml colistin; format: functional, organism-based
Pseudomonas aeruginosa [15] = assay: Antibacterial activity against Pseudomonas aeruginosa Clone C clinical isolate assessed as growth inhibition at 8 ug/ml measured every 15 mins by microtiter plate reader method in presence of […] ug/ml colistin; format: functional, organism-based
Pseudomonas aeruginosa [16] = assay: Antibacterial activity against Pseudomonas aeruginosa PAO1 clinical isolate assessed as inhibition of biofilm formation at 32 ug/ml after 18 to 22 hrs by crystal violet staining-based polystyrene microtiter plate reader method in presence of 2 ug/ml colistin; format: functional
Pseudomonas aeruginosa [17] = assay: Antibacterial activity against Pseudomonas aeruginosa VW1485 clinical isolate after 16 to 20 hrs by microdilution assay; format: functional
Pseudomonas aeruginosa [18] = assay: Antibacterial activity against Pseudomonas aeruginosa Clone C clinical isolate after 18 to 22 hrs by checkerboard method in presence of tobramycin; format: functional
Pseudomonas aeruginosa [19] = assay: Antibacterial activity against Pseudomonas aeruginosa KD491 clinical isolate assessed as inhibition of biofilm formation at 8 ug/ml after 24 hrs by propidium iodide staining-based confocal laser microscopy; format: functional, organism-based
[20] = Hemolytic activity in erythrocytes (unknown origin) at 250 ug/ml; format: ADME, cell-based, Erythrocyte; settings: read-out: Activity
Pseudomonas aeruginosa [21] = assay: Antibacterial activity against Pseudomonas aeruginosa KD491 clinical isolate assessed as growth inhibition at 4 ug/ml measured every 15 mins by microtiter plate reader method in presence of […] ug/ml colistin; format: functional, organism-based
Pseudomonas aeruginosa [22] = assay: Antibacterial activity against Pseudomonas aeruginosa KD491 clinical isolate assessed as delay in growth at 4 to 8 ug/ml measured every 15 mins by microtiter plate reader method; format: functional, organism-based
Pseudomonas aeruginosa [23] = assay: Antibacterial activity against Pseudomonas aeruginosa PAO1 clinical isolate assessed as growth inhibition at 32 ug/ml measured every 15 mins by microtiter plate reader method in presence of […] ug/ml tobramycin; format: functional, organism-based
Pseudomonas aeruginosa [24] = assay: Antibacterial activity against Pseudomonas aeruginosa KD491 clinical isolate assessed as inhibition of biofilm formation at 4 ug/ml after 18 to 22 hrs by crystal violet staining-based polystyrene microtiter plate reader method; format: functional
Pseudomonas aeruginosa [25] = assay: Antibacterial activity against Pseudomonas aeruginosa VW313 clinical isolate after 16 to 20 hrs by microdilution assay; format: functional
Pseudomonas aeruginosa [26] = assay: Antibacterial activity against Pseudomonas aeruginosa PAO1 clinical isolate assessed as inhibition of biofilm formation at 4 ug/ml after 18 to 22 hrs by crystal violet staining-based polystyrene microtiter plate reader method in presence of 0.5 ug/ml tobramycin; format: functional, organism-based
Pseudomonas aeruginosa [27] = assay: Antibacterial activity against Pseudomonas aeruginosa KD491 clinical isolate after 18 to 22 hrs by checkerboard method in presence of colistin; format: functional
Pseudomonas aeruginosa [28] = assay: Toxicity in Pseudomonas aeruginosa KD491 clinical isolate assessed as inhibition of planktonic cell growth at 2 to 4 ug/ml after 18 to 22 hrs by microtiter plate reader method; format: organism-based; settings: in vivo
Pseudomonas aeruginosa [29] = assay: Antibacterial activity against Pseudomonas aeruginosa VW178 clinical isolate after 16 to 20 hrs by microdilution assay; format: functional
Pseudomonas aeruginosa [30] = assay: Antibacterial activity against Pseudomonas aeruginosa D599 clinical isolate after 16 to 20 hrs by microdilution assay; format: functional
Pseudomonas aeruginosa [31] = assay: Antibacterial activity against Pseudomonas aeruginosa Clone C clinical isolate after 18 to 22 hrs by checkerboard method in presence of colistin; format: functional
Pseudomonas aeruginosa [32] = assay: Antibacterial activity against Pseudomonas aeruginosa LESB58 clinical isolate after 18 to 22 hrs by checkerboard method in presence of colistin; format: functional
Pseudomonas aeruginosa [33] = assay: Antibacterial activity against Pseudomonas aeruginosa KD557 clinical isolate after 16 to 20 hrs by microdilution assay; format: functional
Pseudomonas aeruginosa [34] = assay: Antibacterial activity against Pseudomonas aeruginosa VW1471 clinical isolate after 16 to 20 hrs by microdilution assay; format: functional
Pseudomonas aeruginosa [35] = assay: Antibacterial activity against Pseudomonas aeruginosa PAO1 clinical isolate assessed as growth inhibition at 4 ug/ml measured every 15 mins by microtiter plate reader method in presence of 1 ug/ml colistin; format: functional, organism-based
Pseudomonas aeruginosa [36] = assay: Antibacterial activity against Pseudomonas aeruginosa VW0247 clinical isolate after 16 to 20 hrs by microdilution assay; format: functional
Pseudomonas aeruginosa [37] = assay: Antibacterial activity against Pseudomonas aeruginosa PAO1 clinical isolate after 18 to 22 hrs by checkerboard method in presence of tobramycin; format: functional
Pseudomonas aeruginosa [38] = assay: Antibacterial activity against Pseudomonas aeruginosa KD491 clinical isolate assessed as growth inhibition at 8 ug/ml measured every 15 mins by microtiter plate reader method in presence of 1 ug/ml tobramycin; format: functional, organism-based
Pseudomonas aeruginosa [39] = assay: Antibacterial activity against Pseudomonas aeruginosa KD491 clinical isolate after 16 to 20 hrs by microdilution assay; format: functional
Pseudomonas aeruginosa [40] = assay: Antibacterial activity against Pseudomonas aeruginosa VW1540 clinical isolate after 16 to 20 hrs by microdilution assay; format: functional

CCCCCCCCCC(=O)NCCCC[C@H](NC(=O)[C@H](Cc1c[nH]c2ccccc12)NC(=O)[C@H](CCCNC(=N)N)NC(=O)[C@H](Cc1c[nH]c2ccccc12)NC(=O)[C@H](CCCNC(=N)N)NC(=O)[C@H](Cc1c[nH]c2ccccc12)NC(=O)[C@@H](N)CCCNC(=N)N)C(=O)O (H-RWRWRWK(Decanoyl)-OH)
MIC (Pseudomonas aeruginosa [1]): 256 µg/mL (≈ 193 µM) | fractional inhibitory concentration index (FICI) (Pseudomonas aeruginosa [2]): 0.5 | inhibition (Pseudomonas aeruginosa [3]): inactive | growth inhibition (GI) (Pseudomonas aeruginosa [4]): Active | Activity (Pseudomonas aeruginosa [5]): Active | MIC (Pseudomonas aeruginosa [6]): 128 µg/mL (≈ 96.4 µM) | inhibition at 64 µg/mL (Pseudomonas aeruginosa [7]): 81% | Activity (Pseudomonas aeruginosa [8]): Active | MIC (Pseudomonas aeruginosa [9]): 128 µg/mL (≈ 96.4 µM) | Activity (Pseudomonas aeruginosa [10]): Active | inhibition (Pseudomonas aeruginosa [11]): inactive | hemolysis at 32 ug/ml [12]: < 10% | fractional inhibitory concentration index (FICI) (Pseudomonas aeruginosa [13]): 0.375 | inhibition (Pseudomonas aeruginosa [14]): inactive | growth inhibition (GI) (Pseudomonas aeruginosa [15]): Active | inhibition (INH) (Pseudomonas aeruginosa [16]): 84% | MIC (Pseudomonas aeruginosa [17]): 256 µg/mL (≈ 193 µM) | fractional inhibitory concentration index (FICI) (Pseudomonas aeruginosa [18]): 0.5 | inhibition (Pseudomonas aeruginosa [19]): inactive | hemolysis at 250 ug/ml [20]: 50% | growth inhibition (GI) (Pseudomonas aeruginosa [21]): Active | Activity (Pseudomonas aeruginosa [22]): Active | growth inhibition (GI) (Pseudomonas aeruginosa [23]): Active | inhibition at 4 µg/mL (Pseudomonas aeruginosa [24]): 52% | MIC (Pseudomonas aeruginosa [25]): 32 µg/mL (≈ 24.1 µM) | inhibition (Pseudomonas aeruginosa [26]): inactive | fractional inhibitory concentration index (FICI) (Pseudomonas aeruginosa [27]): 0.2625 | Activity (Pseudomonas aeruginosa [28]): Non-toxic | MIC (Pseudomonas aeruginosa [29]): 32 µg/mL (≈ 24.1 µM) | MIC (Pseudomonas aeruginosa [30]): 128 µg/mL (≈ 96.4 µM) | fractional inhibitory concentration index (FICI) (Pseudomonas aeruginosa [31]): 0.5 | fractional inhibitory concentration index (FICI) (Pseudomonas aeruginosa [32]): 0.375 | MIC (Pseudomonas aeruginosa [33]): 256 µg/mL (≈ 193 µM) | MIC (Pseudomonas aeruginosa [34]): 64 µg/mL (≈ 48.2 µM) | growth inhibition (GI) (Pseudomonas aeruginosa [35]): Active | MIC (Pseudomonas aeruginosa [36]): 64 µg/mL (≈ 48.2 µM) | fractional inhibitory concentration index (FICI) (Pseudomonas aeruginosa [37]): 0.75 | growth inhibition (GI) (Pseudomonas aeruginosa [38]): Active | MIC (Pseudomonas aeruginosa [39]): 16 µg/mL (≈ 12.1 µM) | MIC (Pseudomonas aeruginosa [40]): 64 µg/mL (≈ 48.2 µM)
